From US8003375B2, “Qualitative differential screening” (ExonHit Therapeutics S.A., priority 1998, dated 2011)
Values belong to the compound of their own block, whether it stands above or below them.

How the values were obtained:
HepG2 cells [1] = experiment: in vitro
Method: (§1) The effects of toxic compounds on RNA splicing regulation defects were tested as follows. HepG2 hepatocyte cells were treated with different doses of three toxic compounds (ethanol, camptothecin, PMA (phorbol 12-myristate 13-acetate)). Two cytotoxicity tests (trypan blue, MTT) were performed at different time points: 4 h and 18 h for ethanol; 4 h and 18 h for camptothecin; 18 h and 40 h for PMA.
(§2) Trypan blue is a dye that can be incorporated by […] cells. […] The experimental points are determined in triplicate.
(§3) The MTT test is a colorimetric test measuring the capacity of living cells to convert soluble tetrazolium salts (MTT) into an insoluble formazan precipitate. These dark blue formazan crystals can be dissolved and their concentration determined by measuring absorbance at 550 nm. Thus, after overnight seeding of 24-well dishes with 150,000 cells, followed by treatment of the cells with the toxic compounds, 50 μl of MTT (Sigma) are added (at a concentration of 5 mg/ml in PBS). The formazan crystal formation reaction is carried out for 5 h in a CO2 incubator (37° C., 5% CO2, 95% humidity). After addition of 500 μl of solubilization solution (0.1 N HCl in isopropanol-Triton X-100 (10%)), the crystals are dissolved with stirring and their absorbance is measured at 550 to 660 nm. Determinations are done in triplicate with suitable controls (viability, cell death, blanks).
(§4) A test of apoptosis or programmed cell death was also performed by measuring DNA fragmentation with an anti-histone antibody and ELISA. The Cell Death ELISA Plus from Roche was used.

in vitro = conditions: human
Method: as §1, §2, §3, §4

HepG2 cells [2] = conditions: 0.1 M ethanol for 18 hours (FIG. 9)
Description: A more complex situation was examined. […] RNAs were extracted from cells that were or were not subjected to treatment. The aforementioned DATAS variant (preparation of biotinylated ss cDNA, cross hybridizations in liquid phase, application of a magnetic field to separate the species, RNase H digestion) was effected with untreated cells in the reference condition (or condition A) and with treated cells in the test condition (or condition B) (FIG. 9). As the extracted RNAs were not radiolabeled, the RNAs generated by RNase H digestion were visualized by carrying out an exchange reaction to replace the RNA 5′ phosphate with a labeled phosphate, by means of T4 polynucleotide kinase and gamma-P^32ATP. These labeled products were then loaded on an acrylamide/urea gel and analyzed by exposure using an Instant Imager (Packard Instruments).

FASR isoforms = experiment: RT-PCR of FASR isoforms in treated HepG2 cells; type: cell-based, human; conditions: 4 h, RT-PCR (FIG. 19)
Method: (§5) HepG2 cells were thus treated with these three concentrations of these three compounds for 4 h in the case of ethanol and camptothecin and for 18 h in the case of PMA. […] These initial strands served as templates for PCR amplification reactions (94° C. 1 min, 55° C. 1 min, 72° C. 1 min, 30 cycles) by means of the following oligonucleotide primers: [table] These primers correspond to the regions common to certain FASR isoforms and should amplify a 478 base pair fragment for wild type form FasR, 452 base pairs for isoform Δ8 and 415 for isoform ΔTM.

bcl-X isoforms = experiment: RT-PCR of BCL-X isoforms in treated HepG2 cells; type: cell-based, human; conditions: 4 h, RT-PCR (FIG. 19)
Method: as §5, with “the different described” for “certain FASR”, “isoforms of bcl-X (bcl-XI, bcl-Xs, BCL-Xβ) (Boise et al., (1993), Cell 74: 597-608; U72398 (Genbank))” for “isoforms”, “single 204” for “478”, “these three isoforms.” for “wild type form FasR, 452 base pairs for isoform Δ8 and 415 for isoform ΔTM.”

[3] = system: MACH-α (Caspase-8) isoforms; experiment: RT-PCR of MACH-α isoforms in treated HepG2 cells; type: cell-based, human; conditions: camptothecin 1 μg/ml, 4 h, RT-PCR (FIG. 19)
Method: HepG2 cells were thus treated with these three concentrations of these three compounds for 4 h in the case of ethanol and camptothecin and for 18 h in the case of PMA. Messenger RNAs were purified on Dynal-Oligo-(dT) beads starting from total RNAs purified with the Rneasy kit (Quiagen). cDNA was synthesized from these messenger RNAs using Superscript reverse transcriptase (Life Technologies) and random hexamers as primers
These initial strands served as templates for PCR amplification reactions (94° C. 1 min, 55° C. 1 min, 72° C. 1 min, 30 cycles) by means of the following oligonucleotide primers: […]
These primers correspond to the regions common to the different described isoforms of MACH-α (1, 2 and 3, respectively amplifying 595, 550 and 343 base pairs). MACH-α (Caspase-8) is a protease involved in programmed cell death (Boldin et al., (1996), Cell, 85: 803-815).

IC50 (in vitro): > 100 mM
SMILES: CCO [ethanol]
cytotoxicity and DNA degradation (HepG2 cells [1]): signs of cytotoxicity and DNA degradation via internucleosomal fragmentation
RNA splicing signatures (A/B and B/A signals versus A/A) (HepG2 cells [2]): can induce a reprogramming of RNA splicing events
fas receptor isoform pattern (FASR isoforms; ethanol 0.1 M): induces an increase in the long wild type form of the fas receptor at the expense of the shorter isoform
bcl-X isoform pattern (bcl-X isoforms; ethanol 0.1 M): induces the disappearance of bcl-x which is replaced by a shorter isoform

SMILES: CC[C@@]1(O)C(=O)OCc2c1cc1n(c2=O)Cc2cc3ccccc3nc2-1 [camptothecin]
IC50 (in vitro; HepG2 hepatocyte cells): > 1 µg/mL
expression of isoform MACH-α1 [3]: decrease
expression of isoform MACH-α3 [3]: increase
fas receptor isoform pattern (FASR isoforms; camptothecin 1 μg/ml): induces a decrease in the wild type form of the fas receptor, replaced by expression of a shorter isoform which may correspond to Fas ΔTM
bcl-X isoform pattern (bcl-X isoforms; camptothecin 1 μg/ml): induces the appearance of a new bcl-X isoform

SMILES: CCCCCCCCCCCCCC(=O)O[C@@H]1[C@@H](C)[C@@]2(O)[C@@H](C=C(CO)C[C@]3(O)C(=O)C(C)=C[C@@H]23)[C@@H]2C(C)(C)[C@]12OC(C)=O [PMA, phorbol 12-myristate 13-acetate]
IC50 in cytotoxicity and apoptosis tests (HepG2 cells [1]; HepG2 cells, trypan blue, MTT, Cell Death ELISA, 18 h and 40 h, stated concentration well below measured IC50): > 0.05 µg/mL
